One assay has as its target Cdc7/Dbf4 (Homo sapiens, UniProt O00311). Put plainly: Cdc7 biochemical assay Method 2: Cdc7/Dbf4 Enzyme TR-FRET Assay measuring pS40MCM2. The note with it: pS40 MCM2 peptide, 1 μM ATP, 25° C., 120 minutes, read-out: Biochemical Method 2 (pIC50) (converted). On the procedure:
This protocol describes a method for assaying a compounds' ability to inhibit Cdc7 activity by measuring pS40MCM2 levels in a Cdc7/Dbf4 Enzyme TR-FRET Assay.
2.5 nM Cdc7/Dbf4 was incubated with 100 nM of biotin-labelled peptide 35-TDALTS(pS)PGRDLP in the presence of 1 μM ATP at 25° C. for 120 minutes. The phosphorylation of the peptide was detected using TR-FRET. Anti-Mcm2 (pS40) antibody, Terbium anti-rabbit secondary antibody and Streptavidin-Alexa Fluor488 form the detection system.
For orientation: Time-resolved FRET reads energy transfer from a long-lived donor to a nearby acceptor.

The target in assay [1] is T1, Cdc7 (Homo sapiens, UniProt O00311). Put plainly: Cdc7 cell pharmacodynamics assay Method 2: pS40MCM2 levels in HCT116 cells. In kind it is cell-based. On the set-up: endogenous in cells. The note with it: 18 hours treatment, read-out: Biomarker Method 2 (pEC50) (converted). The source says:
This protocol describes a method to investigate the inhibition of Cdc7 activity by measuring pS40MCM2 levels in cells, after treatment with compounds.
• HCT116 cells (ATCC, #CCL-247) • McCoys 5A with L-glutamine (Cellgro, #10-050-CV) • 10% FCS (Cellgro, #35-010-CV) • D-PBS without CaCl2 and MgCl2 (Cellgro, #21-031-CV) • Trypsin/EDTA (Cellgro, #25-052-CL) • BSA (Calbiochem, 126593) • Cell Extraction Buffer (Invitrogen FNN0011) • Protease inhibitor cocktail (Sigma P-2714) • PMSF 0.3M stock in DMSO (Sigma P7626) • Antibody—rabbit pMCM2 Ser40 (Abeam, AB133243) • Antibody—goat MCM2 (Bethyl #A300-122A) • Antibody—goat Anti Rabbit IgG HRP (Thermo, 31462) • SuperSignal ELISA Pico Chemiluminescent Substrate (Perbio Science UK Ltd 37069) • 10×PBS (Growcells, MRGF-6236) • Triton X100 (Sigma, P-T8787) • DMSO (Fisher, D128-1) • 2-Propanol (J. T. Baker, 9095-03) Method • Seed 1×10^6 HCT116 cells into each of two 175 cm^2 flask containing 30 mL Cell Growth Media and incubate at 37° C., 5% CO2 for 3 days. • Harvest the cells from one T175 cm^2 flask and count. • Dilute with Cell Growth Media to a cell density of 2×10^5. Dispense 100 μL to each well (20,000 HCT116 cells/well) of TC treated 96-well plate(s). • Allow cells to settle overnight in incubator set at 37° C. and 5% CO2. • Cell treatment: Transfer 0.25 μL/well from the compound plate to the wells of the cell plate(s). This is a 1:400 dilution of compound in the assay. • Once all cells are treated place the cells back to the incubator and incubate for 18 hours. • Dilute the capture antibody (total MCM2 #A300-122A) 1 in 250 in the required volume of PBS (5 mL per assay plate, plus 5 mL for dead volume) and add 50 μL to each well of a Hybond plate except wells A12 & B12. Seal the plate and incubate at room temperature fora minimum of 2 hours. • Defrost aliquot of Invitrogen Cell Extraction Buffer (FNN0011) on ice and supplement with appropriate volume of both Sigma protease inhibitor cocktail (P-2714) and PMSF (final cone 1 mM from a 1 M stock in DMSO). • After the 6 hour or 18 hour cell treatment time, tap out the media from the assay plates and place them in the −70° C. freezer for at least 5 minutes. • Flick out the remaining liquid in the previously prepared capture Ab plate(s) and add 200 μL 2% BSA per well. Incubate for 1 hour at room temperature. • Remove plates from freezer and add 20 μL of ice cold complete lysis buffer. Incubate cells for 30 minutes at 4° C. • Add 30 μL per well 2% BSA • At the end of the 1 hour incubation, wash the Capture/ELISA plate(s) with Wash Buffer on the BioTek plate washer. • Transfer 40 μL per well of the lysis plate(s) to the same wells in the Capture/ELISA plate. Incubate cells overnight at 4° C. • At the end of the overnight incubation, wash the ELISA plate(s) with Wash Buffer on BioTek plate washer. • Prepare Detection Antibody Buffer and dispense 50 μL to all wells of ELISA plate(s) except wells G1 & H1. Cover plate and incubate at room temperature for 2 hours with gentle shaking. • At the end of the 2 hour incubation, wash the ELISA plate(s) with Wash Buffer on the BioTek plate washer. • Prepare the Conjugated Antibody Buffer and dispense 50 μL to all wells of ELISA plate(s). • Cover the plate and incubate at room temperature for 1 hour with gentle shaking. • At the end of the 1 hour incubation, wash the ELISA plate(s) with Wash Buffer on the BioTek plate washer. • Prepare Substrate Buffer and dispense 50 μL to all wells of ELISA plate(s). • Incubate for a minimum of 10 minutes and read plates on the EnVision 2100 Multilabel Reader (Mirror: Luminescence (404) & Luminescence 700 (212); Measurement Height: 6.5 mm; Measurement Time: 0.2 s). Method 3

The target in assay [2] is T1, Cdc7. Put plainly: Cdc7 cell pharmacodynamics assay Method 3: pS53MCM2 levels in SW48 cells. In kind it is cell-based. On the set-up: endogenous in cells; host or cells: SW48. The note with it: 6 hours treatment, read-out: Biomarker Method 3 (pEC50) (converted). The source says:
This protocol describes a method to investigate the inhibition of Cdc7 activity by measuring pS53MCM2 levels in cells, after treatment with compounds.
• SW48 cells • RPMI 1640 (Sigma, R5886) • 10% FCS (Sera Laboratories International Ltd, EU000F Batch: 108005) • 100× L-Glutamine (Invitrogen, 25030-024) • D-Glucose Solution (10%) (Sigma, G8644) • HEPES Buffer Solution (Sigma, 83264) • Sodium Pyruvate (Sigma, S8636) • PBS (Fisger, BP399-4) • Trypsin/EDTA (Invitrogen 25300-054) • 2% BSA in PBS • Cell Extraction Buffer (Invitrogen FNN0011) • Protease inhibitor cocktail (Sigma P-2714) • PMSF 0.3M stock in DMSO (Sigma P7626) • Antibody—rabbit pMCM2 Ser53 (Bethyl #A300-756A) • Antibody—goat MCM2 (Bethyl #A300-122A) • Antibody—goat Anti Rabbit IgG HRP (Perbio Science UK Ltd 31462) • SuperSignal ELISA Pico Chemiluminescent Substrate (Perbio Science UK Ltd 37070) Method • Plate 30,000 SW48 cells per well in standard TC treated 96 well plate in 100 μL complete RPMI 1640 medium. • Allow cells to settle overnight in incubator set at 37° C. and 5% CO2. • Cell treatment: prepare a 384 well plate containing 80 μl PBS/well. The PBS should be at room temperature—to be referred to as intermediate plate. Transfer 2 μL of compound from mother plate to intermediate (daughter plate) 1:40 dilution, then 5 μL intermediate to cell (daughter) plate. • Once all cells are treated place the cells back to the incubator and incubate for 6 hours. • Dilute the capture antibody (total MCM2 #A300-122A) 1 in 250 in the required volume of PBS (5 mL per assay plate, plus 5 mL for dead volume) and add 50 μL to each well of a Hybond plate. Seal the plate and incubate at room temperature for a minimum of 2 hours. • Defrost aliquot of Invitrogen Cell Extraction Buffer (FNN0011) on ice and supplement with appropriate volume of both Sigma protease inhibitor cocktail (P-2714) and PMSF (final cone 1 mM from a 1 M stock in DMSO). • After the 6 hour cell treatment time, tap out the media from the assay plates and place them in the −80° C. freezer for at least 5 minutes. • Remove plates from freezer and add 20 μL of ice cold complete lysis buffer, with the multidrop. Incubate cells for 30 minutes at 4° C. • Add 80 μL per well 2% BSA. • Flick out the remaining liquid from the capture plate and transfer 80 μL from the lysis plate to the same wells in the capture/ELISA plate, using the Biomek. Cover with plate seal and incubate plates overnight at 4° C. • Wash plates with PBS, remove any residual remaining liquid and add 50 μL per well of pMCM2 Ser53 antibody (#A300-756A) diluted 1 in 100 in 2% BSA. Cover plate and incubate at room temperature for 2 hours with gentle shaking. • Wash plates with PBS, remove any residual remaining liquid and Incubate with 50 μL goat anti rabbit antibody (1 in 800 dilution in 2% BSA), for 1 hour at room temperature. • Wash plates with PBS, remove any residual remaining liquid and add 50 μL mixed SuperSignal Pico substrate. • Incubate each plate for 5 minutes at room temperature shielding the plates from direct light (with a cover plate). Read plates with the luminescent detection. Results

T1 sequence (O00311 whole entry): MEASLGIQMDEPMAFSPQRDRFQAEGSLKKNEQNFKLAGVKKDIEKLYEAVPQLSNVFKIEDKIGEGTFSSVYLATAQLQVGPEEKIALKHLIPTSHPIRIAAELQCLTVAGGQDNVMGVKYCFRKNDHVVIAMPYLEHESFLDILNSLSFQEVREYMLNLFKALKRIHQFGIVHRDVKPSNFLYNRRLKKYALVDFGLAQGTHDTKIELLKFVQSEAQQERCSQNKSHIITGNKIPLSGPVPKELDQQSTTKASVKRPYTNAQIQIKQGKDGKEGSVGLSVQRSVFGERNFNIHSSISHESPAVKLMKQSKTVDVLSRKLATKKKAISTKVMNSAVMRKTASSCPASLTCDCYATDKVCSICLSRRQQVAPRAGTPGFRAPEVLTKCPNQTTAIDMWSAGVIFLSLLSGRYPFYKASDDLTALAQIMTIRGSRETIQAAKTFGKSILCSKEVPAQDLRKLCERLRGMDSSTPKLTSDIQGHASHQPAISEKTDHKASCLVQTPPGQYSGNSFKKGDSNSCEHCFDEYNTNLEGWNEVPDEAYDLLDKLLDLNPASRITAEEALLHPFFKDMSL
T1 sequence (Q9UBU7 whole entry partner): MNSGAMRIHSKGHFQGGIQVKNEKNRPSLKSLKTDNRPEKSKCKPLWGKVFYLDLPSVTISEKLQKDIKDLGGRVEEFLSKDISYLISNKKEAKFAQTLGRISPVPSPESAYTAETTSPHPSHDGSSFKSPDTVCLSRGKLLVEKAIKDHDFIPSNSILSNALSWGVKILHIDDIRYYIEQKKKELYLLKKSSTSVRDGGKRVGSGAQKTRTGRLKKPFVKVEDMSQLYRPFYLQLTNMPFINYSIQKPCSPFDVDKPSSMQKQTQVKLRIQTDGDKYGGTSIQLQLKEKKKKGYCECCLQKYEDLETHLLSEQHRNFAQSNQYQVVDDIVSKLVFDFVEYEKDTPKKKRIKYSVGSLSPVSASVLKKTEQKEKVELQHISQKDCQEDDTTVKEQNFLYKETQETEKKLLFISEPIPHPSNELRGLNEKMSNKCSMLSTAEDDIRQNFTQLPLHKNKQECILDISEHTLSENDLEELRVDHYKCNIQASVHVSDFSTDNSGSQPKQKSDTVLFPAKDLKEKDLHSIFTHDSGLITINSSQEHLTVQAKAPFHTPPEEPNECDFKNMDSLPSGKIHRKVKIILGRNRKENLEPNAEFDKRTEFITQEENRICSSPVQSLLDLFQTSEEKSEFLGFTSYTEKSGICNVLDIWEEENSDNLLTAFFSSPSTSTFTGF
Sequence of Cdc7/Dbf4 (O00311 whole entry): as the sequence (O00311 whole entry) above
Sequence of Cdc7/Dbf4 (Q9UBU7 whole entry partner): as the sequence (Q9UBU7 whole entry partner) above

With `O=c1[nH]c(-c2cn[nH]c2C(F)(F)F)nc(N2CCNCC(F)(F)C2)c1Cl` [Compound 45, 5-chloro-4-(6,6-difluoro-1,4-diazepan-1-yl)-2-[5-(trifluoromethyl)-1H-pyrazol-4-yl]-1H-pyrimidin-6-one], the IC50 on Cdc7/Dbf4 is 1.95 nM. The EC50 at Cdc7 [1] is 44.7 nM; on Cdc7 [2], 1170 nM.
The corresponding values for `O=c1[nH]c(-c2cn[nH]c2C(F)(F)F)nc(N2CCOCC2)c1Cl` [Compound 47, 5-chloro-4-morpholino-2-[5-(trifluoromethyl)-1H-pyrazol-4-yl]-1H-pyrimidin-6-one] are 0.776 nM, 38 nM and 1170 nM.
`O=c1[nH]c(-c2c[nH]c3ncccc23)nc(N2CCNCC(F)(F)C2)c1Cl` [Compound 52, 5-chloro-4-(6,6-difluoro-1,4-diazepan-1-yl)-2-(1H-pyrrolo[2,3-b]pyridin-3-yl)-1H-pyrimidin-6-one]: the IC50 at Cdc7/Dbf4 is 7.08 nM. Also, the EC50 was 851 nM on Cdc7 [1] and 5750 nM on Cdc7 [2].
As to `C[C@@H]1COCCN1c1nc(-c2c[nH]c3ncccc23)[nH]c(=O)c1Cl` [Compound 53, 5-chloro-4-[(3R)-3-methylmorpholin-4-yl]-2-(1H-pyrrolo[2,3-b]pyridin-3-yl)-1H-pyrimidin-6-one], the IC50 on Cdc7/Dbf4 is 1.29 nM. The EC50 at Cdc7 [1] is 33.1 nM; on Cdc7 [2], 955 nM.

Values taken from patent publication US11766434B2, “Pyrimidinone derivatives as CDC7 inhibitors” (Cancer Research Technology Limited, priority 2016, dated 2023).
